Assay results from patent publication US20080020041A1, “Enteric Coated Compositions that Release Active Ingredient(s) in Gastric Fluid and Intestinal Fluid” (priority 2004, published 2008).
Where a name gives a salt, the structure may show the parent alone. Read-outs that look alike come from different tables or passages of the source.

Columns and labels:
[1] = cited from earlier work
[2] = Hydrochlorothiazide bio-study: urinary excretion, urine output and side effects after IR or GRD; type: in vivo, human; details: same dose, drug released in gastric fluid (GRD)
Description: Two formulations for hydrochlorthiazide (an immediate release formulation (IR) and a gastric retention device (GRD) containing sustained release formulations (SR)) were administered in the bio-study (bioavailability study). A commercial tablet containing 50 mg of HCTZ was used as an IR control, and spray-coated beads equivalent to 50 mg of HCTZ were formulated for slow drug release (SR) and included in the GRF. Bioavailability and pharmacodynamics of HCTZ from a GRD were compared to those from an IR.
Monitoring concentrations of hydrochlorthiazide in the urine of healthy adult volunteers allowed comparison of the relative bioavailability of hydrochlorthiazide from the GRD formulation and from a conventional tablet. […] An IR was given once and the GRD was repeated twice to test the reproducibility of the new dosage form. A 50-mg dose was chosen for the study because it was in the range of the recommended dose from the PDR (Physician's Desk References) and it produced concentrations high enough to make HPLC analysis efficient. Six subjects participated in the study, 4 healthy males and 2 healthy females. They were not allowed any food or drink containing caffeine, nor alcohol or other medications. Smokers and vegetarians were not included. […] The volume of urine collected was measured in order to calculate total amount of drug recovered.

[3] = Procedure: All data fittings were performed on data from immediate-release formulations using WinNonlin software, version 3.2 (Pharsight Corporation, Mountain View, Calif.).
[4] = 60 mg immediate-release riboflavin, fed subjects; cited from earlier work
[5] = fitted from available plasma data (PDR), used in simulations
From the text: These parameters are volume of distribution divided by fraction of dose absorbed (V/F), absorption rate constant (ka), and elimination rate constant (kel).

[6] = commercial mixed pellets, cited from earlier work
[7] = disintegrating tablets from pellets coated with cellulose acetate phthalate; cited from earlier work
[8] = prolonged release wax matrix formulation; cited from earlier work
[9] = fitted to literature data of immediate-release formulation

CC(=O)Oc1ccc(C(c2ccc(OC(C)=O)cc2)c2ccccn2)cc1 [bisacodyl]
Liberation of bisacodyl in 0.1 M HCl ([1]; coating of mixture of Eudagrit L and Eudgrit NE): approximately 4 % w/w | Liberation of bisacodyl in phosphate buffer within 45 min ([1]; pH 6.8, polymer 1): 100% | Liberation of bisacodyl in phosphate buffer within 45 min ([1]; pH 6.8, polymer 2): 40% | Liberation of bisacodyl in phosphate buffer ([1]; pH 7.2, polymer 2): 100% | Bisacodyl liberated in acidic media after tableting ([1]; pellets coated with 25% w/w of one of the new polymers): 4-5 % w/w

NS(=O)(=O)c1cc2c(cc1Cl)NCNS2(=O)=O [Hydrochlorothiazide]
Adverse reactions reported [2]: No adverse reactions were reported

CNC(=C[N+](=O)[O-])NCCSCc1ccc(CN(C)C)o1 [Ranitidine hydrochloride]
absorption rate constant ([3]; human, in vivo): 0.641 | kel ([3]; human, in vivo): 0.239 h⁻¹

Cc1cc2nc3c(=O)[nH]c(=O)nc-3n(C[C@H](O)[C@H](O)[C@H](O)CO)c2cc1C [riboflavin]
Bioavailability [4]: 36.4%

C[C@H](N)Cc1ccccc1 [d-Amphetamine]
ka [5]: 0.744 h⁻¹ | Observed Cmax ([6]; Fasted, 30 mg): 40.2 ng/mL | Observed Cmax ([6]; Fed, 20 mg): 25.3 ng/mL

Cc1cc(NS(=O)(=O)c2ccc(N)cc2)no1 [sulfametoxazole]
Drug liberated within 2 hours in artificial gastric fluid [7]: more than 10%

CC1(C)S[C@@H]2[C@H](NC(=O)[C@H](N)c3ccc(O)cc3)C(=O)N2[C@H]1C(=O)O [amoxicillin]
Amoxicillin released in 6 hours [8]: 19%

Cc1cc2nc3c(=O)[nH]c(=O)nc-3n(C[C@H](O)[C@H](O)[C@H](O)COP(=O)(O)O)c2cc1C [Riboflavin-5-phosphate]
absorption rate constant [3, 9]: 3.67 | kel [3, 9]: 0.32 h⁻¹
